Laboratory results published in patent US20260297042A1, “BIARYLAMIDE DERIVATIVES AND THEIR USE AS PKMYT1 INHIBITORS” (CANCER RESEARCH TECHNOLOGY LIMITED, priority 2023, published 2026).

Experiments:
Human PKMYT1 = target: T1, Human PKMYT1 (Homo sapiens, UniProt Q99640); assay: PKMYT1 biochemical ADP-Glo enzymatic assay; conditions: ADP-Glo
T1 construct: Human PKMYT1 75-362 was cloned as a TEV cleavable 6xHis fusion; 6xHis (TEV cleavable) (cleaved yes); made in house; host or cells: bacterial cells
T1 sequence (Q99640 75-362): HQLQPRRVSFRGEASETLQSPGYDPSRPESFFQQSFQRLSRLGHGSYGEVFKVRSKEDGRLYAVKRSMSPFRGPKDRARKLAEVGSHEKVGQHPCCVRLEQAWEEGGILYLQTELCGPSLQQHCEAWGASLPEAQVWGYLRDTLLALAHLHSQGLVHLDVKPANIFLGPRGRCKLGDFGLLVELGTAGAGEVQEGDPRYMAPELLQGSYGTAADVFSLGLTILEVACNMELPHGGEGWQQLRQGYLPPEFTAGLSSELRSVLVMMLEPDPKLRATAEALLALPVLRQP
Outline: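 IC50 values come from 10-point 3-fold series, with replicates required within 3-fold and r2 >0.9. ADP formed by PKMYT1 intrinsic ATPase (500 uM ATP, 60 min, 26° C.) was quantified by ADP-Glo luminescence. The enzyme was the TEV-cleaved kinase domain 75-362 at 15 nM, in HEPES pH 7.5 buffer.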

WEE1 = target: T2, WEE1 (Homo sapiens, UniProt P30291); assay: Selectivity versus WEE1 assay (ADP-Glo enzymatic assay); format: biochemical; conditions: for IC50: ADP-Glo; for PKMYT1 vs. WEE1 selectivity: fold difference in selectivity for PKMYT1 over WEE1
T2 construct: purchased Thermo Fisher PR7373A
T2 sequence (P30291 whole entry): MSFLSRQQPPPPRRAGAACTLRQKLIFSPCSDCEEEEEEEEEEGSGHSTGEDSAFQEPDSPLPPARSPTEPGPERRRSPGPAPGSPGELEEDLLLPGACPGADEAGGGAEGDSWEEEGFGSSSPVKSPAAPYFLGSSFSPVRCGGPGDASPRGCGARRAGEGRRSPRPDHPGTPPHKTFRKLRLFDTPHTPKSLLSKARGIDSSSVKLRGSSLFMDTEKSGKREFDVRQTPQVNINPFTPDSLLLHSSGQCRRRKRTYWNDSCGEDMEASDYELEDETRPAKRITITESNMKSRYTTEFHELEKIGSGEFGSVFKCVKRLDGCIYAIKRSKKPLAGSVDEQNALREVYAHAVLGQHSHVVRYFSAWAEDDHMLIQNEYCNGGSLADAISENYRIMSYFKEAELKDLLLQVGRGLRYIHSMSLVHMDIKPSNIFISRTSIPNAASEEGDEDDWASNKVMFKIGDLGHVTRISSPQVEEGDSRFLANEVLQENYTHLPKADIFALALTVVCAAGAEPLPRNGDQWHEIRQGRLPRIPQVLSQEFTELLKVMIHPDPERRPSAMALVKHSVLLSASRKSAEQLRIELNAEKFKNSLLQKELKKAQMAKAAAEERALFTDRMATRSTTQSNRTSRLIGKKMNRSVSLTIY
Outline: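 ADP-Glo luminescent read-out after a 60-min, 26 °C kinase reaction of 15 nM WEE1 with 30 µM ATP, in HEPES pH 7.5 buffer containing MgCl2, EGTA, Brij-35 and 1% DMSO. IC50 accepted only when replicate values agree within 3-fold and curve fit r2 exceeds 0.9.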

[1] = PKMYT1 kinase domain 15 nM, banded values
[2] = 15 nM PKMYT1 kinase domain, 500 µM ATP, 60 minutes at 26° C., banded
[3] = 15 nM WEE1, 60 minutes at 26° C., banded
[4] = banded, ">N" = at least in this band but could be higher

Structure (SMILES) | IC50 (Human PKMYT1; [1]) [nM] | IC50 (WEE1; WEE1 15 nM, banded values) [nM] | PKMYT1 vs. WEE1 selectivity (WEE1; banded) | IC50 (Human PKMYT1; [2]) [nM] | IC50 (WEE1; [3]) [nM] | PKMYT1 vs. WEE1 selectivity (WEE1; [4])
Cc1ccc(O)c(C)c1NC(=O)c1cnc(Nc2cccc3scnc23)s1 [BAA-486, 2-(benzo[d]thiazol-4-ylamino)-N-(3-hydroxy-2,6-dimethylphenyl)thiazole-5-carboxamide] | 50 to 1000 | > 11000 | X (100-<1000 fold) | – | – | –
Cc1ccc(O)c(C)c1NC(=O)c1cnc(Nc2ccn([C@@H]3CCN(C(=O)Cc4ccc(F)cc4)C3)n2)s1 [BAA-093] | – | – | – | 50 to 1000 | > 11000 | >X (100-<1000 fold)
Cc1ccc(O)c(C)c1NC(=O)c1cnc(Nc2ccccc2C2CC2)s1 [BAA-526, 2-((2-cyclopropylphenyl)amino)-N-(3-hydroxy-2,6-dimethylphenyl)thiazole-5-carboxamide] | 50 to 1000 | > 11000 | X (100-<1000 fold) | – | – | –
COCCOCCNC(=O)Cn1ccc(Nc2ncc(C(=O)Nc3c(C)ccc(O)c3C)s2)n1 [BAA-134, N-(3-hydroxy-2,6-dimethyl-phenyl)-2-[[1-[2-[2-(2-methoxyethoxy)ethylamino]-2-oxo-ethyl]pyrazol-3-yl]amino]thiazole-5-carboxamide] | – | – | – | < 50 | > 11000 | Y (1000-5000 fold)
Cc1ccc(O)c(C)c1NC(=O)c1cnc(Nc2ccn(CC(=O)NC(C)(C)CO)n2)s1 [BAA-138, 2-[1-[2-[(2-hydroxy-1,1-dimethyl-ethyl)amino]-2-oxo-ethyl]pyrazol-3-ylJamino]-N-(3-hydroxy-2,6-dimethyl-phenyl)thiazole-5-carboxamide] | – | – | – | 50 to 1000 | > 11000 | X (100-<1000 fold)
Cc1ccc(O)c(C)c1NC(=O)c1cnc(Nc2sccc2C(N)=O)s1 [BAA-021, 2-[(3-carbamoyl-2-thienyl)amino]-N-(3-hydroxy-2,6-dimethyl-phenyl)thiazole-5-carboxamide] | – | – | – | 50 to 1000 | > 11000 | >X (100-<1000 fold)
Cc1ccc(O)c(C)c1NC(=O)c1cnc(Nc2ccn(CCN)n2)s1 [BAA-053, 2-[[1-(2-Aminoethyl)pyrazol-3-yl]amino]-N-(3-hydroxy-2,6-dimethyl-phenyl)thiazole-5-carboxamide] | – | – | – | 50 to 1000 | 1000 to 11000 | W (10-<100 fold)
Cc1ccc(O)c(C)c1NC(=O)c1nnc(Nc2ccn(C)n2)s1 [BAA-463, N-(3-Hydroxy-2,6-dimethylphenyl)-5-((1-methyl-1H-pyrazol-3-yl)amino)-1,3,4-thiadiazole-2-carboxamide] | 50 to 1000 | > 11000 | X (100-<1000 fold) | – | – | –
Cc1ccc(O)c(C)c1NC(=O)c1cnc(Nc2ccn(CC(=O)N3CCC(F)(F)C3)n2)s1 [BAA-176] | – | – | – | < 50 | > 11000 | Y (1000-5000 fold)
Cc1ccc(O)c(C)c1NC(=O)c1cnc(Nc2ccn(CC(=O)N3CCN(C(=O)CC(C)C)CC3)n2)s1 [BAA-198, N-(3-hydroxy-2,6-dimethyl-phenyl)-2-[[1-[2-[4-(3-methylbutanoyl)piperazin-1-yl]-2-oxo-ethyl]pyrazol-3-yl]amino]thiazole-5-carboxamide] | – | – | – | < 50 | > 11000 | Y (1000-5000 fold)
Cc1ccc(O)c(C)c1NC(=O)c1cnc(Nc2ccncn2)s1 [BAA-435, N-(3-hydroxy-2,6-dimethylphenyl)-2-(pyrimidin-4-ylamino)thiazole-5-carboxamide] | < 50 | > 11000 | Y (1000-5000 fold) | – | – | –
Cc1cn(-c2cnn(CCO)c2)nc1Nc1ncc(C(=O)Nc2c(C)ccc(O)c2C)s1 [BAA-395, N-(3-hydroxy-2,6-dimethylphenyl)-2-((1′-(2-hydroxyethyl)-4-methyl-1′H-[1,4′-bipyrazol]-3-yl)amino)thiazole-5-carboxamide] | < 50 | 1000 to 11000 | X (100-<1000 fold) | – | – | –
Cc1ccc(O)c(C)c1NC(=O)c1cnc(NCc2cccnc2)s1 [BAA-345, N-(3-hydroxy-2,6-dimethylphenyl)-2-((pyridin-3-ylmethyl)amino)thiazole-5-carboxamide] | – | – | – | 50 to 1000 | > 11000 | Y (1000-5000 fold)
Cc1ccc(O)c(C)c1NC(=O)c1cnc(Nc2ccn(CC(=O)N3CC4CCC(C3)N4C(=O)OC(C)(C)C)n2)s1 [BAA-180] | – | – | – | < 50 | > 11000 | Y (1000-5000 fold)
Cc1ccc(O)c(C)c1NC(=O)c1cnc(Nc2cc3n(n2)CCN(C)C3=O)s1 [BAA-250, N-(3-hydroxy-2,6-dimethylphenyl)-2-((5-methyl-4-oxo-4,5,6,7-tetrahydropyrazolo[1,5-a]pyrazin-2-yl)amino)thiazole-5-carboxamide] | – | – | – | < 50 | > 11000 | X (100-<1000 fold)
CCN1CCN(C(=O)Cn2ccc(Nc3ncc(C(=O)Nc4c(C)ccc(O)c4C)s3)n2)CC1 [BAA-177] | – | – | – | < 50 | > 11000 | X (100-<1000 fold)
Cc1cn(CCN(C)C)nc1Nc1ncc(C(=O)Nc2c(C)ccc(O)c2C)s1 [BAA-501, 2-((1-(2-(dimethylamino)ethyl)-4-methyl-1H-pyrazol-3-yl)amino)-N-(3-hydroxy-2,6-dimethylphenyl)thiazole-5-carboxamide] | 50 to 1000 | > 11000 | W (10-<100 fold) | – | – | –
Cc1c(O)ccc(Br)c1NC(=O)c1cnc(Nc2ccn(CC(=O)N3CCCC3)n2)s1 [BAA-519, N-(6-Bromo-3-hydroxy-2-methyl-phenyl)-2-[[1-(2-oxo-2-pyrrolidin-1-yl-ethyl)pyrazol-3-yl]amino]thiazole-5-carboxamide] | < 50 | > 11000 | X (100-<1000 fold) | – | – | –
Cc1ccc(O)c(C)c1NC(=O)c1cnc(Nc2n[nH]c3ccccc23)s1 [BAA-455, 2-((1H-indazol-3-yl)amino)-N-(3-hydroxy-2,6-dimethylphenyl)thiazole-5-carboxamide] | 50 to 1000 | > 11000 | X (100-<1000 fold) | – | – | –
Cc1ccc(O)c(C)c1NC(=O)c1cnc(Nc2nc(CO)cs2)s1 [BAA-018] | – | – | – | < 50 | > 11000 | X (100-<1000 fold)
Cc1ccc(O)c(C)c1NC(=O)c1cnc(Nc2ccn([C@@H]3CCN(C(=O)c4ccccc4)C3)n2)s1 [BAA-087] | – | – | – | 50 to 1000 | > 11000 | –
Cc1ccc(O)c(C)c1NC(=O)c1cnc(Nc2ccn(CC(=O)N3CCN(C4CCC4)CC3)n2)s1 [BAA-185] | – | – | – | 50 to 1000 | > 11000 | >Y (1000-5000 fold)
CCN(CC)C(=O)Cn1nc(Nc2ncc(C(=O)Nc3c(C)ccc(O)c3C)s2)cc1C [BAA-204, 2-[[1-[2-(diethylamino)-2-oxo-ethyl]-5-methyl-pyrazol-3-yl]amino]-N-(3-hydroxy-2,6-dimethyl-phenyl)thiazole-5-carboxamide] | – | – | – | < 50 | > 11000 | Z (>5000 fold)
Cc1ccc(O)c(C)c1NC(=O)c1cnc(Nc2cc[nH]n2)s1 [BAA-003, N-(3-hydroxy-2,6-dimethyl-phenyl)-2-(1H-pyrazol-3-ylamino)thiazole-5-carboxamide] | – | – | – | 1000 to 11000 | > 11000 | W (10-<100 fold)
